From PubChem BioAssay AID1963853 (Molecular Pharmacology Branch, DTP, NCI, 2024)

Tested on: 266295-075-R-J1-PDC spheroid viability
Assay: Anticancer human tumor 266295-075-R-J1-PDC patient-derived head and neck squamous carcinoma cell line growth inhibition [POLQ]
Conditions: spheroids with HUVEC and MSC; for IC50: curve of first compound; for viability, T/C: stronger effect = lower value; active means viability on the fitted dose curve at most 10% of control; inactive means the rest
In short: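 PDC + HUVEC + MSC complex spheroids; POLQ inhibitors ± partner drugs; top conc. at/near clinical Cmax, else 10 microM (SN-38 1 microM), half-log dilutions; 37 degrees C, 5% CO2.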
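Further: spheroids exposed to compounds for seven days before readout.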

CC(=O)O[C@H]1C(=O)[C@@]2(C)[C@H]([C@H](OC(=O)c3ccccc3)[C@]3(O)C[C@H](OC(=O)[C@H](O)[C@@H](NC(=O)c4ccccc4)c4ccccc4)C(C)=C1C3(C)C)[C@]1(OC(C)=O)CO[C@@H]1C[C@@H]2O + Nc1ccc(C#CCN(C(=O)Cc2ncc(C(F)(F)F)cc2C(F)(F)F)c2ccc(F)cc2)nn1
> 3 µM: IC50 (second compound 0.0316 µM) | IC50 (second compound 0.1 µM) | IC50 (second compound 0.316 µM) | IC50 (second compound 1 µM) | IC50 (second compound 3.16 µM) | IC50 (second compound 10 µM)
inactive: viability, T/C (second compound 0.0316 µM, first compound 0.00949 µM) 98.3% | viability, T/C (second compound 0.0316 µM, first compound 0.03 µM) 78.9% | viability, T/C (second compound 0.0316 µM, first compound 0.0949 µM) 73.9% | viability, T/C (second compound 0.0316 µM, first compound 0.3 µM) 76% | viability, T/C (second compound 0.0316 µM, first compound 0.949 µM) 78.8% | viability, T/C (second compound 0.0316 µM, first compound 3 µM) 78.3% | viability, T/C (second compound 0.1 µM, first compound 0.00949 µM) 75.6% | viability, T/C (second compound 0.1 µM, first compound 0.03 µM) 84% | viability, T/C (second compound 0.1 µM, first compound 0.0949 µM) 69.3% | viability, T/C (second compound 0.1 µM, first compound 0.3 µM) 69.3% | viability, T/C (second compound 0.1 µM, first compound 0.949 µM) 70.7% | viability, T/C (second compound 0.1 µM, first compound 3 µM) 71.3% | viability, T/C (second compound 0.316 µM, first compound 0.00949 µM) 94.1% | viability, T/C (second compound 0.316 µM, first compound 0.03 µM) 82.9% | viability, T/C (second compound 0.316 µM, first compound 0.0949 µM) 63.7% | viability, T/C (second compound 0.316 µM, first compound 0.3 µM) 55.3% | viability, T/C (second compound 0.316 µM, first compound 0.949 µM) 77.5% | viability, T/C (second compound 0.316 µM, first compound 3 µM) 61.4% | viability, T/C (second compound 1 µM, first compound 0.00949 µM) 81.3% | viability, T/C (second compound 1 µM, first compound 0.03 µM) 59.1% | viability, T/C (second compound 1 µM, first compound 0.0949 µM) 69% | viability, T/C (second compound 1 µM, first compound 0.3 µM) 70.7% | viability, T/C (second compound 1 µM, first compound 0.949 µM) 72.7% | viability, T/C (second compound 1 µM, first compound 3 µM) 66% | viability, T/C (second compound 3.16 µM, first compound 0.00949 µM) 71% | viability, T/C (second compound 3.16 µM, first compound 0.03 µM) 80.5% | viability, T/C (second compound 3.16 µM, first compound 0.0949 µM) 77.4% | viability, T/C (second compound 3.16 µM, first compound 0.3 µM) 62.8% | viability, T/C (second compound 3.16 µM, first compound 0.949 µM) 65% | viability, T/C (second compound 3.16 µM, first compound 3 µM) 67.4% | viability, T/C (second compound 10 µM, first compound 0.00949 µM) 72.4% | viability, T/C (second compound 10 µM, first compound 0.03 µM) 74.6% | viability, T/C (second compound 10 µM, first compound 0.0949 µM) 63% | viability, T/C (second compound 10 µM, first compound 0.3 µM) 71.1% | viability, T/C (second compound 10 µM, first compound 0.949 µM) 76.7% | viability, T/C (second compound 10 µM, first compound 3 µM) 77.2%
